Results from US20080261895A1 (Wyeth, priority 2006, published 2008).
Values joined by “and” are separate entries in the source; they are usually repeats but may differ in a detail not shown here. Identical values can stand only once.

Assays:
[1] = Fecal excretion and metabolite profile by radiochromatography, rats; assay type: in vivo, Sprague Dawley rats; conditions: for % of the radioactive dose excreted in feces: rats
Procedure: Urine and feces were collected separately on dry ice from three animals per sex. Collections were from 0-8 and 8-24 hours for male rats and 0-8 hours for female rats. Fecal samples were homogenized in approximately five volumes (v/w) of water. Aliquots of approximately 0.4 grams of the homogenate were placed into combusto-cones, weighed and allowed to air dry. These samples were then oxidized. The remaining urine samples and fecal homogenates were stored at −70° C. until metabolite analysis.
Fecal homogenates collected from male rats between 8 and 24 hours post-dose were analyzed for metabolite profiles. Aliquots of approximately 1 gram of fecal homogenate were centrifuged at 3500 rpm and 4° C. in a Sorvall Super 21 centrifuge for 10 minutes. The supernatant was transferred to a clean tube. The residue was re-suspended with 1 mL of water:acetonitrile (1:1, v:v) and centrifuged as described above. The resulting supernatant was combined with the original supernatant and the residue re-suspended with 1 mL of acetonitrile. The suspension was centrifuged as described above, and the supernatants were combined and analyzed for radioactivity. The supernatants were then concentrated under a stream of nitrogen in a Turbo Vap to remove the acetonitrile. An aliquot of the aqueous residue was analyzed by HPLC for profiling. Selected samples were also analyzed by LC/MS to characterize the radioactive peaks.
Chromatographic analyses were performed with a Waters Alliance model 2690 HPLC system (Waters Corp., Milford, Mass.). It was equipped with a built-in autosampler and was in-line with a model 2487 tunable UV detector, set to monitor 225 nm, and a FloOne β Model 525 radioactivity flow detector (Perkin Elmer) with a 250 μL LQTR flow cell. The flow rate of Ultima Flow M scintillation fluid was 1 mL/min, providing a mixing ratio of scintillation cocktail to mobile phase of 5:1. Separation of the metabolite peaks was accomplished on a Phenomenex Luna C18(2) column, 150×2.0 mm, 5 micron (Phenomenex, Torrance, Calif.), using a linear gradient of two mobile phases, A and B. Mobile phase A was 10 mM ammonium acetate, pH 6.0, and mobile phase B was acetonitrile. The flow rate was 0.2 mL/min.

[2] = Whole blood and plasma radioactivity and partitioning after single oral [14C]DVS, rats; assay type: in vivo, Sprague Dawley rats; conditions: single oral 20 mg/kg; for Radioactivity in Plasma, Individual Rats / Radioactivity in Plasma, Mean ± S.D. / Radioactivity in Whole Blood, Individual Rats: listed as [^14C]DVS, 20 mg/kg
From the text: Sprague Dawley rats (12 male and 6 female), weighing between 0.311 and 0.345 kg for males and between 0.263 and 0.311 kg for females at the time of dosing, were used. Animals were given food and water ad libitum. For ease of reporting, the animals were designated numbers 001M through 012M for the male rats and 001F through 006F for the female rats. Three animals from the last time point, for each sex, were housed individually in metabolism cages for the collection of urine and feces. The other animals were housed individually in standard cages.
The oral dosing solution was prepared by combining 86.4 mL of 3.0 mg/mL (2.0 mg/mL, free base) unlabeled DVS solution with 3.6 mL of 4.3 mg/mL (3.0 mg/mL free base) [^14C]DVS solution. Solutions were prepared in 0.25% polysorbate 80, 0.5% methylcellulose in water. The radiochemical purity, specific activity and concentration of [^14C]DVS (bulk drug and dosing solution) were determined using HPLC with radiometric detection. Aliquots of the dosing solution were taken pre-, mid-, and post-dose for the determination of specific activity and radioactivity concentrations of dosing solution.
Whole blood (approximately 5 mL) was collected by cardiac puncture into heparinized tubes at the appropriate time points (1, 4, 8, and 24 hours for male rats, and 1 and 8 hours for female rats, N=3 for each sex at each time point). Triplicate aliquots (200 μL) of whole blood were placed into combusto-cones, weighed and allowed to air dry. These samples were oxidized. The remaining blood was centrifuged at 5000×g and 4° C. for 10 minutes (Model Legend RT centrifuge, Sorvall). The resulting plasma was transferred to fresh tubes and triplicate aliquots (100 μL) were analyzed for radioactivity content. The remaining plasma was stored at −70° C. until metabolite analysis.
Blood samples and fecal homogenates were oxidized in a Model 307 Tri-Carb sample oxidizer, using Carbosorb® E (6 mL) as trapping agent and PermaFluor® E^+ (10 mL) as scintillant. Oxidation efficiency was determined by oxidation of C-Spec-Chec (Perkin Elmer), a standard of known radioactivity, and determined to be 98.7%. The background reading (average of control blood or fecal samples) was subtracted from each sample reading. Aliquots of urine and plasma were analyzed directly following the addition of 10 mL of Ultima Gold™ scintillation fluid.
All radioactivity determinations were made using a Tri-Carb Model 3100TR liquid scintillation counter (Perkin Elmer) with an Ultima Gold™ or toluene standard curve. Counts per minute (CPM) were converted to disintegrations per minute (DPM) by use of external standards of known radioactivity. The quench of each standard was determined by the transformed spectral index of an external radioactive standard (tSIE). The lower limits of detection were defined as twice background.

[3] = Stability of [14C]DVS in control rat urine; assay type: in vitro ADME; conditions: 37° C.
Procedure: The stability of [^14C]DVS in rat urine was determined. [^14C]DVS (0.13 mg/mL, final concentration) was added to control rat urine and incubated in a shaking water bath set to 37° C. Aliquots (0.5 mL) were removed at 0, 1, 4, 8 and 24 hours. Samples were extracted as described above and radiopurity assayed by HPLC analysis.

Radioactivity as % of Dose in feces, Mean ± S.D. ([1]; male rats, feces 8-24 hours post-dose, single oral 20 mg/kg): 9.6 ± 1.1% | Compounds Detected by Radiochromatography in feces, percent of total peaks, individual rats ([1]; male rats, feces 8-24 hours post-dose, single oral 20 mg/kg, 20 mg/kg): 19.6% and 20.8% and 22.0% | Radioactivity as % of Dose in feces, individual rats ([1]; male rats, feces 8-24 hours post-dose, single oral 20 mg/kg, listed as [^14C]DVS, 20 mg/kg): 10.8% and 9.5% and 8.5^b % | % of the radioactive dose excreted in feces ([1]; 0-8 hour fecal samples): Less than 0.1% | % of the radioactive dose excreted in feces ([1]; within 24 hours of dosing): approximately 10% | Radioactivity in Whole Blood, Mean ± S.D. ([2]; 1 hr, female): 6.18 ± 0.74 μg equivalents/mL | Radioactivity in Whole Blood, Mean ± S.D. ([2]; 1 hr, male): 6.87 ± 1.50 μg equivalents/mL | Radioactivity in Whole Blood, Mean ± S.D. ([2]; 4 hr, male): 0.88 ± 0.12 μg equivalents/mL | Radioactivity in Whole Blood, Mean ± S.D. ([2]; 8 hr, female): 0.58 ± 0.07 μg equivalents/mL | Radioactivity in Whole Blood, Mean ± S.D. ([2]; 8 hr, male): 0.59 ± 0.18 μg equivalents/mL | Radioactivity in Whole Blood, Mean ± S.D. ([2]; 24 hr, male): 0.07 ± 0.01 μg equivalents/mL | radiopurity of [14C]DVS in rat urine ([3]; all time points up to 24 hours): greater than 99.5% | Stability of [14C]DVS in control rat urine ([3]; up to 24 hours): stable
Compound: CN(C)CC(c1ccc(O)cc1)C1(O)CCCCC1.O=C(O)CCC(=O)O (stereo not shown) [DVS, O-desmethylvenlafaxine succinate]
Radioactivity in Plasma, Individual Rats ([2]; 1 hr, female): 9.61 μg equivalents/mL and 8.74 μg equivalents/mL and 11.3 μg equivalents/mL | Radioactivity in Plasma, Mean ± S.D. ([2]; 1 hr, female): 9.90 μg equivalents/mL and 9.90 ± 1.2 μg equivalents/mL | Radioactivity in Whole Blood, Individual Rats ([2]; 1 hr, female): 5.63 μg equivalents/mL and 5.76 μg equivalents/mL and 7.15 μg equivalents/mL | Radioactivity in Plasma, Individual Rats ([2]; 1 hr, male): 10.4 μg equivalents/mL and 8.90 μg equivalents/mL and 13.7 μg equivalents/mL | Radioactivity in Plasma, Mean ± S.D. ([2]; 1 hr, male): 11.0 μg equivalents/mL and 11.0 ± 2.2 μg equivalents/mL | Radioactivity in Whole Blood, Individual Rats ([2]; 1 hr, male): 6.11 μg equivalents/mL and 5.66 μg equivalents/mL and 8.85 μg equivalents/mL | Radioactivity in Plasma, Individual Rats ([2]; 4 hr, male): 1.59 μg equivalents/mL and 1.62 μg equivalents/mL and 1.22 μg equivalents/mL | Radioactivity in Plasma, Mean ± S.D. ([2]; 4 hr, male): 1.48 μg equivalents/mL and 1.48 ± 0.20 μg equivalents/mL | Radioactivity in Whole Blood, Individual Rats ([2]; 4 hr, male): 0.95 μg equivalents/mL and 0.96 μg equivalents/mL and 0.72 μg equivalents/mL | Radioactivity in Plasma, Individual Rats ([2]; 8 hr, female): 0.86 μg equivalents/mL and 0.82 μg equivalents/mL and 1.08 μg equivalents/mL | Radioactivity in Plasma, Mean ± S.D. ([2]; 8 hr, female): 0.92 μg equivalents/mL and 0.92 ± 0.12 μg equivalents/mL | Radioactivity in Whole Blood, Individual Rats ([2]; 8 hr, female): 0.59 μg equivalents/mL and 0.50 μg equivalents/mL and 0.66 μg equivalents/mL | Radioactivity in Plasma, Individual Rats ([2]; 8 hr, male): 0.53 μg equivalents/mL and 1.10 μg equivalents/mL and 1.05 μg equivalents/mL | Radioactivity in Plasma, Mean ± S.D. ([2]; 8 hr, male): 0.89 μg equivalents/mL and 0.89 ± 0.27 μg equivalents/mL | Radioactivity in Whole Blood, Individual Rats ([2]; 8 hr, male): 0.35 μg equivalents/mL and 0.71 μg equivalents/mL (2×) | Radioactivity in Plasma, Individual Rats ([2]; 24 hr, male): 0.07 μg equivalents/mL and 0.08 μg equivalents/mL and 0.05 μg equivalents/mL | Radioactivity in Plasma, Mean ± S.D. ([2]; 24 hr, male): 0.07 μg equivalents/mL and 0.07 ± 0.01 μg equivalents/mL | Radioactivity in Whole Blood, Individual Rats ([2]; 24 hr, male): 0.06 μg equivalents/mL and 0.08 μg equivalents/mL and 0.05 μg equivalents/mL
